Measurements reported in article PMC5971468, “Small molecules that inhibit the late stage of Munc13-4–dependent secretory granule exocytosis in mast cells” (The Journal of Biological Chemistry, 2018).

Tests used:
[1] = molecular target: T1, Munc13-4 (Homo sapiens, UniProt Q70J99); assay: SNARE-dependent liposome lipid-mixing FRET assay with purified Munc13-4 + Ca2+; format: biochemical
T1 construct: gene UNC13D; His6-tagged human Munc13-4 protein produced in insect Sf9 cells

[2] = molecular target: T1, Munc13-4; assay: SNARE-dependent liposome lipid-mixing FRET assay with purified Munc13-4 + Ca2+; liposome flotation binding assay; format: biochemical

T1 sequence (Q70J99 whole entry): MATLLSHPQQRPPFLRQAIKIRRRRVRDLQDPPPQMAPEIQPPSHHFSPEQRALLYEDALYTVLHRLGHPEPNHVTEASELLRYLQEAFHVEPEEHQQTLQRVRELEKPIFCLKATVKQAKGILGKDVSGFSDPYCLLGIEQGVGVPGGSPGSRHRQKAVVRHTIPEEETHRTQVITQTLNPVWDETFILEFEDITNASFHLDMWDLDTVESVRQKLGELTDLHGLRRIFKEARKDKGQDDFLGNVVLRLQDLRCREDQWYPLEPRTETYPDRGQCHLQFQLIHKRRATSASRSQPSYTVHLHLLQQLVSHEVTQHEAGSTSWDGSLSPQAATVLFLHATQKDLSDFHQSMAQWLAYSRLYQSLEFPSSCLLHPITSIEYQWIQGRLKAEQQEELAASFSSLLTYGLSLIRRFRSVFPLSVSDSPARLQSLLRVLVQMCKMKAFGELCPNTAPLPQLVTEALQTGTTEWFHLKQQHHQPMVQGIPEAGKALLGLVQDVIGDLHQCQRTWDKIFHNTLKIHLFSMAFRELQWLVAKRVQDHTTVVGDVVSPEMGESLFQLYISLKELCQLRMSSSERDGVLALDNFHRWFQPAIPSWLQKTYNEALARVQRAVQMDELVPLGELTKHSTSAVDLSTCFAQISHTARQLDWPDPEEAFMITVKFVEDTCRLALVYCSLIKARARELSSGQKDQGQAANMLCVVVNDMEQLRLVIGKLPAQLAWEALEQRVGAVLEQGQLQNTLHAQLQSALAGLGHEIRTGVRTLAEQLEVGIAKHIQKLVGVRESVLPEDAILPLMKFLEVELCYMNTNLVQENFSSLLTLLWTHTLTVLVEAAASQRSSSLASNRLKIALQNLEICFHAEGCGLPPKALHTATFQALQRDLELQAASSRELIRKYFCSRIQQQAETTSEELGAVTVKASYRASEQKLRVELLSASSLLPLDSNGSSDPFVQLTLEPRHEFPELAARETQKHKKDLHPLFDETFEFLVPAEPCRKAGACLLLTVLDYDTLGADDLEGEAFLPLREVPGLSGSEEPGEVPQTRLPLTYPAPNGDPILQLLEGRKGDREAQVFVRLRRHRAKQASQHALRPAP
T1 sequence (P32851 whole entry partner): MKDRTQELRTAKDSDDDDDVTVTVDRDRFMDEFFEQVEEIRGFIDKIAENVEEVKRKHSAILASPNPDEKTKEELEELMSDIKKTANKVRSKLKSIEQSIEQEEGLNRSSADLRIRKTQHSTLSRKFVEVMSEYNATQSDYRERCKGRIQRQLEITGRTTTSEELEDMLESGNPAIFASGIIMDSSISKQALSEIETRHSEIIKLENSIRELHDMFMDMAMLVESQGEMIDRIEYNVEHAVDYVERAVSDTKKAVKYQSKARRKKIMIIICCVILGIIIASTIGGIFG
T1 sequence (P60879 whole entry partner): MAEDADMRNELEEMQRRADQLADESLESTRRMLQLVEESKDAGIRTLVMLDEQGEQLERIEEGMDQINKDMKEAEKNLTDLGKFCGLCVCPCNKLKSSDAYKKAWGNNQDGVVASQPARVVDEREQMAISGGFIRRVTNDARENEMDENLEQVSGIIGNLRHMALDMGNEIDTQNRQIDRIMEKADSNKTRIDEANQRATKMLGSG
T1 sequence (P63044 2-116 partner): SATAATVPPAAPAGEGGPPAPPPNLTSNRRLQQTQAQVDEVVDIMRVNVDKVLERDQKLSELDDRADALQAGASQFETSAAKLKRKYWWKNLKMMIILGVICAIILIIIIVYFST

IC50 [1]	IC50 [2]	Compound
~5 µM	–	COc1ccc2sc(N(CCCN(C)C)C(=O)c3ccc(S(=O)(=O)N4CCCc5ccccc54)cc3)nc2c1 [bexin-3]
–	~5 µM	CCn1nc(C(=O)N(CCCN(C)C)c2nc3c(C)ccc(Cl)c3s2)cc1C [bexin-1]
